Laboratory results: patent publication US20230301988A1 (priority 2020, published 2023)
Residues, ends and D or L forms follow the SMILES beside them.

Key:
cathepsin L [1] = target: T1, cathepsin L (Homo sapiens, UniProt P07711); experiment: Kinetic assay for cathepsin L; format: biochemical
Method: (§1) For assays of cathepsin B, L, and S, cruzain inhibitors were evaluated in reaction mixtures containing a buffer of sodium acetate (pH 5.5), 1 mM CHAPS, 1 mM Na2EDTA, and 5 mM DTT at 25° C. The substrate Cbz-Phe-Arg-AMC was dissolved in 100% DMSO, as were all inhibitors, and aliquots of both substrates and inhibitors were added to 0.25 mL reaction mixtures to final concentrations of 10% DMSO (v/v). […] Cruzain inhibitors were added at seven concentrations and one fixed concentration of Cbz-Phe-Arg-AMC, and time courses of AMC formation were analyzed as with cruzain.

cathepsin S = cathepsin S (Homo sapiens, UniProt P25774); experiment: Kinetic assay for cathepsin S; format: biochemical
Sequence of cathepsin S (P25774 115-331): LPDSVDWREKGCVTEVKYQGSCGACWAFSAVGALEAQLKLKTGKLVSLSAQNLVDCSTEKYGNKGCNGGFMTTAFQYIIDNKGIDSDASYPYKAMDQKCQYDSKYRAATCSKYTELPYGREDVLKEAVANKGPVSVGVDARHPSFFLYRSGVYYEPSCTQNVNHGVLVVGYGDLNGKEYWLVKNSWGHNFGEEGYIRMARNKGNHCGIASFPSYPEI
Method: as §1

cathepsin B = cathepsin B (Homo sapiens, UniProt P07858); experiment: Kinetic assay for cathepsin B; format: biochemical; conditions: substrate, pH 5.5, 25° C.
cruzain = cruzain (Trypanosoma cruzi, UniProt P25779); experiment: Cruzain inactivation; format: biochemical
Sequence of cruzain (P25779 123-337): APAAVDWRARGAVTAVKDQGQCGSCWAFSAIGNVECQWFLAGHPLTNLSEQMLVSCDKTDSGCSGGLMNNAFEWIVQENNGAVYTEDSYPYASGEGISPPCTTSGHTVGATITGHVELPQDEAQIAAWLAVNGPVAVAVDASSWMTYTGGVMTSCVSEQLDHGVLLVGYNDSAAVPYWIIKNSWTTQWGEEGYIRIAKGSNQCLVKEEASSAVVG

cathepsin L [2] = target: T1, cathepsin L; experiment: Proteolysis of SARS CoV-2 Spike protein by cathepsin L; format: biochemical; conditions: pH 5.5
Vero E6 cells [3] = experiment: Bio-orthogonal labeling of protein targets in Vero E6 cells, in-gel fluorescence; format: cell-based, African green monkey; conditions: for labelling of the 24-25-kDa protein by K11777-alkyne after pre-treatment: pre-treatment 1 μM K777, 1 μM K777 alkyne, SARS-CoV-2 infected and uninfected cells
Method: 4N-propargyl-K11777 was added at concentrations of 1-10 µM to Vero E6 (African green monkey kidney cells), with and without infection by SARS CoV-2 viral particles at an multiplicity of infection of 0.1. […] Cells growth continued for 4 days, followed by harvest, and ˜ 20 million cells were suspended in 1 mL of lysis buffer (200 mM Tris, 4% CHAPS, 1M NaCl, 8 M Urea, pH=8) and protease inhibitor cocktail (Sigma Aldrich) at a ratio of 50:1 (v/v). Cells were lysed by sonication (ThermoFisher Scientific), with the sample on ice, with a ⅛-inch probe at 20% amplitude for 3-seconds, three times with a minute delay between pulses. The cell debris was pelleted (10,000×g for 10 minutes) followed by removal of the supernatant and determination of protein concentration by BCA assay (ThermoFisher Scientific). Labeling of the K11777-alkyne-treated cells was performed in a stepwise fashion whereby 100 mM TBTA in 1:4 DMSO: n-butanol (v/v) was added to 1 mM CuSO4 in water, followed by the addition of 20 mM Cy7-azide (Click Chemistry Tools) in DMSO, 24 μg cell lysate, and finally 2.5 mM sodium ascorbate in water. This reaction was incubated at room temperature for 1-3 hours and quenched by the addition ice-cold methanol (200 μL), chloroform (75 μL), and water (150 μL) followed by vortexing and centrifugation at 15,000 RPM at 4° C. for 15 minutes. […] Then, 4× loading dye (240 mM Tris-HCl, 8% SDS (w/v), 0.004% bromophenol blue (to avoid fluorescence from the dye), 5 mM DTT, and MilliQ water was added to a total volume of 24 μL. Samples were heated to 95° C. for 5 minutes followed by a brief centrifugation at 5,000 RPM for 1 min. The protein-standards ladder (Bio-Rad, Precision Plus Protein™ Dual Color Standards) was diluted 10,000 fold in 4% SDS buffer, loading dye, and water and loading dye 4× loading dye and water to avoid strong fluorescence from the ladder during imaging. Samples were analyzed on a 12% Bis-Tris Nu-PAGE gel (Invitrogen). […] Densitometry of in gel fluorescence was conducted using ImageJ. The gels were also analyzed by Coomassie Brilliant Blue R-250 staining (Bio-Rad).

pseudovirus SARS CoV-1 = conditions: cited from earlier work
host cells = experiment: Toxicity in host cells
Vero E6 cells [4] = experiment: Azide enrichment and proteomic analysis of K11777-alkyne treated Vero E6 cells; format: cell-based, African green monkey
Method: Cell lysates of Vero E6 cells were prepared as described above. Enrichment of alkyne-modified proteins was conducted using the Click-&-Go Protein Enrichment Kit (Click Chemistry Tools) and the protocols thereof. Proteolysis of the resin-bound, enriched proteins, which had been reduced with DTT and alkylated with iodoacetamide, was conducted by addition of 1 μg of Trypsin Gold (Promega) at 37° C. overnight with gentle agitation. The digested peptides were then eluted from the column and subjected to desalting using Pierce™ C18 Tips, 100 μL bed (Thermo Fisher Scientific). The desalted peptides were concentrated to dryness via speed vacuum centrifugation, and suspended in 25 mM ammonium bicarbonate. […]
Data were processed using MaxQuant 1.6.14. Label-free quantification was enabled at the default parameters. […] MaxQuant result files were analyzed using Perseus 1.6.14. Reverse hits, potential contaminant hits, hits only identified by site and hits for which only one peptide was detected were removed. Only proteins which were not detected in the control were considered. […] Finally, proteins which were detected in at least two test samples were clustered based on highest to lowest intensity in the 5 μM and 10 μM treated columns at default parameters (column clustering was disabled) and plotted as a heat map.

T1 sequence (P07711 114-333): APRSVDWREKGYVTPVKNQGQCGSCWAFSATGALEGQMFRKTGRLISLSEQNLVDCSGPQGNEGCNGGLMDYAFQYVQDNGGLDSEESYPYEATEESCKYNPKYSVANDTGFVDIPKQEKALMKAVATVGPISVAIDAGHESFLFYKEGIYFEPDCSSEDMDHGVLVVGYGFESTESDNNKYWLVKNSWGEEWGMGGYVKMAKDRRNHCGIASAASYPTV

Cc1cc(=O)oc2cc(NC(=O)[C@H](CCCN=C(N)N)NC(=O)[C@H](Cc3ccccc3)NC(=O)OCc3ccccc3)ccc12 [Cbz-Phe-Arg-AMC, reference compound] (HELM PEPTIDE1{[O=C(OCc1ccccc1)[*:2]].F.R.[Cc1cc(=O)oc2cc(N[*:1])ccc12]}$$$$V2.0)
Michaelis constant (cathepsin L [1]; substrate, pH 5.5, 25° C.): 2.9 µM | Michaelis constant (cathepsin S; substrate, pH 5.5, 25° C.): 60 µM | Michaelis constant (cathepsin B): 150 µM

CN1CCN(C(=O)N[C@@H](Cc2ccccc2)C(=O)N[C@H](/C=C/S(=O)(=O)c2ccccc2)CCc2ccccc2)CC1 [K11777, 4-methyl-N-((S)-1-oxo-3-phenyl-1-(((S,E)-5-phenyl-1-(phenylsulfonyl)pent-1-en-3-yl)amino)propan-2-yl)piperazine-1-carboxamide]
inactivation of cathepsin L (cathepsin L [1]): exceptionally potent, covalent inactivator | inactivation of cathepsin S (cathepsin S): exceptionally potent, covalent inactivator | inactivation of cruzain (cruzain): exceptionally potent, covalent inactivator | cathepsin L-catalyzed proteolysis of SARS CoV-2 Spike protein (cathepsin L [2]): blocked | cathepsin L-catalyzed proteolysis of SARS CoV-2 Spike protein (cathepsin L [2]; listed as K777): inhibited | labelling of the 24-25-kDa protein by K11777-alkyne after pre-treatment (Vero E6 cells [3]): prevented labelling | labelling of the 24-25-kDa protein by K11777-alkyne after pre-treatment (Vero E6 cells [3]; listed as K777): blocked | infection of Vero, A549 and other mammalian cells by pseudovirus SARS CoV-1 (pseudovirus SARS CoV-1): exceptionally potent inhibitor | toxicity in host cells (host cells): No toxicity

C#CCN1CCN(C(=O)N[C@@H](Cc2ccccc2)C(=O)N[C@H](/C=C/S(=O)(=O)c2ccccc2)CCc2ccccc2)CC1 [N4-Propargyl-K11777, N-((S)-1-oxo-3-phenyl-1-(((S,E)-5-phenyl-1-(phenylsulfonyl)pent-1-en-3-yl)amino)propan-2-yl)-4-(prop-2-yn-1-yl)piperazine-1-carboxamide]
proteins labeled in Vero E6 cells (Vero E6 cells [3]; infected and un-infected with CoV-2, Cy7 azide): labels only cellular proteins of an apparent molecular weight of 24-25 kDa | most enriched labeled proteins (bead capture, mass spectrometry) (Vero E6 cells [4]; listed as K777 alkyne): cathepsins B and L are strongly enriched | most enriched labeled proteins (bead capture, mass spectrometry) (Vero E6 cells [4]; listed as N4-propargyl analogue of K11777): cathepsins L and B
